Patent US10058550B2, “Methods of treating heart failure” (priority 2015, dated 2018)

Biological target: human APJ receptor (Homo sapiens (Human), UniProt P35414)
Assay: biochemical
Assay type: biochemical
Conditions: read-out: Activity hAPJ SPA EC50 IP
Description: The human APJ receptor was cloned by polymerase chain reaction and the gene encoding the receptor was subcloned in pFLAG-CMV™-3 expression vector (Sigma, Saint Louis, Mo. USA) in-house at Amgen. A GTPγS binding assay was performed on membranes prepared from CHO cells stably expressing human APJ receptor. The optimum experimental conditions for the concentrations of GDP, MgCl2, and NaCl in the assay buffer were initially determined. The assay was performed in assay buffer [20 mM HEPES, pH 7.5, 5 mM MgCl2, and 0.1% (w/v) BSA with 200 mM NaCl, 3 μM GDP] and membranes expressing human APJ receptor/well along with WGA PS beads. The reaction was initiated by addition of 0.2 nM [^35S]GTPγS (Perkin Elmer Life and Analytical Sciences, Waltham USA) in the absence or presence of various ligands and incubated at RT for 90 min. […] All the results presented are means of several independent experiments and analyzed by non-linear regression methods using commercially available program Prism (GraphPad, San Diego, Calif.) to obtain EC50 detailed in Table 58.

Chain of human APJ receptor (P35414 whole entry): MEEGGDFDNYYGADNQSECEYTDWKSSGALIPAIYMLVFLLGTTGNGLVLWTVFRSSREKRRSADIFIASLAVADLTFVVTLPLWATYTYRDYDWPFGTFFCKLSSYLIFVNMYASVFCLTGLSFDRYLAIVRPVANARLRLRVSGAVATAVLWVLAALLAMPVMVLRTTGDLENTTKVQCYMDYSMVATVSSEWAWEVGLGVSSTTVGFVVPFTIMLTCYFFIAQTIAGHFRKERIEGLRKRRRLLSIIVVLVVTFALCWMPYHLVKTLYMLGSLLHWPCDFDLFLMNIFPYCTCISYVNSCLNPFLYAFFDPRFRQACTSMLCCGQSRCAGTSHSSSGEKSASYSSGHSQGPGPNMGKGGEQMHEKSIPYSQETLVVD

SMILES | EC50
COc1cccc(-c2nnc(NS(=O)(=O)[C@@H](C)[C@H](OC)c3ncc(C)cn3)n2-c2c(OC)ccnc2OC)n1 (atropisomer, axis not shown) [Example 636.0, (1R,2S, P)-N-(4-(2,4-dimethoxypyridin-3-yl)-5-(6-methoxypyridin-2-yl)-4H-1,2,4-triazol-3-yl)-1-methoxy-1-(5-methylpyrimidin-2-yl)propane-2-sulfonamide and (1R,2S, M)-N-(4-(2,4-dimethoxypyridin-3-yl)-5-(6-methoxypyridin-2-yl)-4H-1,2,4-triazol-3-yl)-1-methoxy-1-(5-methylpyrimidin-2-yl)propane-2-sulfonamide] | 0.4 nM
COc1cccc(F)c1-n1c(NS(=O)(=O)[C@@H](C)[C@H](C)c2ncc(C)cn2)nnc1-c1cncc(C)c1 (atropisomer, axis not shown) [Example 688.0, (2S,3R, P)-N-(4-(2-fluoro-6-methoxyphenyl)-5-(5-methyl-3-pyridinyl)-4H-1,2,4-triazol-3-yl)-3-(5-methyl-2-pyrimidinyl)-2-butanesulfonamide 2,2,2-trifluoroacetate and (2S,3R, M)-N-(4-(2-fluoro-6-methoxyphenyl)-5-(5-methyl-3-pyridinyl)-4H-1,2,4-triazol-3-yl)-3-(5-methyl-2-pyrimidinyl)-2-butanesulfonamide 2,2,2-trifluoroacetate] | 0.66 nM
COc1cccc(-c2nnc(NS(=O)(=O)[C@@H](C)[C@H](OC)c3ncc(C)cn3)n2-c2cccnc2OC)n1 (atropisomer, axis not shown) [Example 741.0, (1R,2S)-1-methoxy-N-(5-(6-methoxypyridin-2-yl)-4-(2-methoxypyridin-3-yl)-4H-1,2,4-triazol-3-yl)-1-(5-methylpyrimidin-2-yl)propane-2-sulfonamide] | 3.1 nM
COc1ccccc1-n1c(NS(=O)(=O)[C@@H](C)[C@H](C)c2ncc(C)cn2)nnc1-c1cncc(C)c1 (atropisomer, axis not shown) [Example 797.0, (2S,3R, P)-N-(4-(2-methoxyphenyl)-5-(5-methyl-3-pyridinyl)-4H-1,2,4-triazol-3-yl)-3-(5-methyl-2-pyrimidinyl)-2-butanesulfonamide and (2S,3R, M)-N-(4-(2-methoxyphenyl)-5-(5-methyl-3-pyridinyl)-4H-1,2,4-triazol-3-yl)-3-(5-methyl-2-pyrimidinyl)-2-butanesulfonamide] | 2.4 nM
COc1cccc(-c2nnc(NS(=O)(=O)[C@@H](C)[C@H](OC)c3ncc(C)cn3)n2-c2cc(C)ccc2OC)n1 (atropisomer, axis not shown; (P)) [Example 40.0, (1R,2S,P)-1-methoxy-N-(4-(2-methoxy-5-methylphenyl)-5-(6-methoxypyridin-2-yl)-4H-1,2,4-triazol-3-yl)-1-(5-methylpyrimidin-2-yl)propane-2-sulfonamide and (1R,2S,M)-1-methoxy-N-(4-(2-methoxy-5-methylphenyl)-5-(6-methoxypyridin-2-yl)-4H-1,2,4-triazol-3-yl)-1-(5-methylpyrimidin-2-yl)propane-2-sulfonamide] | 4.7 nM
COc1cccc(-c2nnc(NS(=O)(=O)[C@@H](C)[C@H](OC)c3ncc(C)cn3)n2-c2ccccc2OC)n1 (atropisomer, axis not shown; (P)) [Example 52.0, (1R,2S,P)-1-methoxy-N-(4-(2-methoxyphenyl)-5-(6-methoxy-2-pyridinyl)-4H-1,2,4-triazol-3-yl)-1-(5-methyl-2-pyrimidinyl)-2-propanesulfonamide and (1R,2S,M)-1-methoxy-N-(4-(2-methoxyphenyl)-5-(6-methoxy-2-pyridinyl)-4H-1,2,4-triazol-3-yl)-1-(5-methyl-2-pyrimidinyl)-2-propanesulfonamide] | 4.2 nM
COc1cccc(-c2nnc(NS(=O)(=O)[C@@H](C)[C@H](OC)c3ncc(C)cn3)n2-c2cccc(Cl)c2C)n1 (atropisomer, axis not shown; (P)) [Example 55.0, (1R,2S,P)-N-(4-(3-chloro-2-methylphenyl)-5-(6-methoxy-2-pyridinyl)-4H-1,2,4-triazol-3-yl)-1-methoxy-1-(5-methyl-2-pyrimidinyl)-2-propanesulfonamide and (1R,2S,M)-N-(4-(3-chloro-2-methylphenyl)-5-(6-methoxy-2-pyridinyl)-4H-1,2,4-triazol-3-yl)-1-methoxy-1-(5-methyl-2-pyrimidinyl)-2-propanesulfonamide] | 17 nM
COc1cccc(-c2nnc(NS(=O)(=O)[C@@H](C)[C@H](OC)c3ncc(C)cn3)n2-c2ccccc2C)n1 (atropisomer, axis not shown; (P)) [Example 61.0, (1R,2S,P)-1-methoxy-N-(5-(6-methoxy-2-pyridinyl)-4-(2-methylphenyl)-4H-1,2,4-triazol-3-yl)-1-(5-methyl-2-pyrimidinyl)-2-propanesulfonamide and (1R,2S,M)-1-methoxy-N-(5-(6-methoxy-2-pyridinyl)-4-(2-methylphenyl)-4H-1,2,4-triazol-3-yl)-1-(5-methyl-2-pyrimidinyl)-2-propanesulfonamide] | 6.5 nM
COc1cccc(-c2nnc(NS(=O)(=O)[C@@H](C)[C@H](OC)c3ncc(C)cn3)n2-c2ccc(F)cc2Cl)n1 (atropisomer, axis not shown; (P)) [Example 67.0, (1R,2S,P)-N-(4-(2-chloro-4-fluorophenyl)-5-(6-methoxy-2-pyridinyl)-4H-1,2,4-triazol-3-yl)-1-methoxy-1-(5-methyl-2-pyrimidinyl)-2-propanesulfonamide and (1R,2S,M)-N-(4-(2-chloro-4-fluorophenyl)-5-(6-methoxy-2-pyridinyl)-4H-1,2,4-triazol-3-yl)-1-methoxy-1-(5-methyl-2-pyrimidinyl)-2-propanesulfonamide] | 15 nM
COc1cccc(-c2nnc(NS(=O)(=O)[C@@H](C)[C@H](OC)c3ncc(C)cn3)n2-c2ccccc2Cl)n1 (atropisomer, axis not shown; (P)) [Example 69.0, (1R,2S,P)-N-(4-(2-chlorophenyl)-5-(6-methoxy-2-pyridinyl)-4H-1,2,4-triazol-3-yl)-1-methoxy-1-(5-methyl-2-pyrimidinyl)-2-propanesulfonamide and (1R,2S,M)-N-(4-(2-chlorophenyl)-5-(6-methoxy-2-pyridinyl)-4H-1,2,4-triazol-3-yl)-1-methoxy-1-(5-methyl-2-pyrimidinyl)-2-propanesulfonamide] | 2.1 nM
COc1cccc(-c2nnc(NS(=O)(=O)[C@@H](C)[C@H](OC)c3ncc(C)cn3)n2-c2cccc(C)c2C)n1 (atropisomer, axis not shown; (P)) [Example 70.0, (1R,2S,P)-N-(4-(2,3-dimethylphenyl)-5-(6-methoxy-2-pyridinyl)-4H-1,2,4-triazol-3-yl)-1-methoxy-1-(5-methyl-2-pyrimidinyl)-2-propanesulfonamide and (1R,2S,M)-N-(4-(2,3-dimethylphenyl)-5-(6-methoxy-2-pyridinyl)-4H-1,2,4-triazol-3-yl)-1-methoxy-1-(5-methyl-2-pyrimidinyl)-2-propanesulfonamide] | 2.6 nM
COc1cccc(-c2nnc(NS(=O)(=O)[C@@H](C)[C@H](OC)c3ncc(C)cn3)n2-c2ccccc2C(F)(F)F)n1 (atropisomer, axis not shown; (P)) [Example 74.0, (1R,2S,P)-1-methoxy-N-(5-(6-methoxy-2-pyridinyl)-4-(2-(trifluoromethyl)phenyl)-4H-1,2,4-triazol-3-yl)-1-(5-methyl-2-pyrimidinyl)-2-propanesulfonamide and (1R,2S,M)-1-methoxy-N-(5-(6-methoxy-2-pyridinyl)-4-(2-(trifluoromethyl)phenyl)-4H-1,2,4-triazol-3-yl)-1-(5-methyl-2-pyrimidinyl)-2-propanesulfonamide] | 2.5 nM
COc1cccc(-c2nnc(NS(=O)(=O)[C@@H](C)[C@H](OC)c3ncc(C)cn3)n2-c2ccccc2F)n1 (atropisomer, axis not shown; (P)) [Example 76.0, (1R,2S,P)-N-(4-(2-fluorophenyl)-5-(6-methoxy-2-pyridinyl)-4H-1,2,4-triazol-3-yl)-1-methoxy-1-(5-methyl-2-pyrimidinyl)-2-propanesulfonamide and (1R,2S,M)-N-(4-(2-fluorophenyl)-5-(6-methoxy-2-pyridinyl)-4H-1,2,4-triazol-3-yl)-1-methoxy-1-(5-methyl-2-pyrimidinyl)-2-propanesulfonamide] | 3 nM
COc1cccc(-c2nnc(NS(=O)(=O)[C@H](C)Cc3ncc(F)cn3)n2-c2ccccc2OC)n1 (mixture of isomers) [Example 31.0, (2R)-1-(5-fluoropyrimidin-2-yl)-N-(4-(2-methoxyphenyl)-5-(6-methoxypyridin-2-yl)-4H-1,2,4-triazol-3-yl)propane-2-sulfonamide and (2S)-1-(5-fluoropyrimidin-2-yl)-N-(4-(2-methoxyphenyl)-5-(6-methoxypyridin-2-yl)-4H-1,2,4-triazol-3-yl)propane-2-sulfonamide] | 2.4 nM
COc1cccc(-c2nnc(NS(=O)(=O)[C@H](C)Cc3ncc(F)cn3)n2-c2c(C)noc2C)n1 (mixture of isomers) [Example 32.0, (2R)-N-(4-(3,5-dimethylisoxazol-4-yl)-5-(6-methoxypyridin-2-yl)-4H-1,2,4-triazol-3-yl)-1-(5-fluoropyrimidin-2-yl)propane-2-sulfonamide and (2S)-N-(4-(3,5-dimethylisoxazol-4-yl)-5-(6-methoxypyridin-2-yl)-4H-1,2,4-triazol-3-yl)-1-(5-fluoropyrimidin-2-yl)propane-2-sulfonamide] | 140 nM
